From patent US8906925B2, “Pyrido[4,3-B]indoles containing rigid moieties” (Medivation Technologies, Inc., priority 2008, dated 2014) come the findings set out here.

Usually inhibition stands for the drop in the measured response relative to a control, in per cent.

Experiment [1] addresses T1, human recombinant serotonin (5-Hydroxytryptamine) 5-HT6 receptor (Homo sapiens, UniProt P50406).
T1 construct: expressed in transfected cells; host or cells: human HeLa cells
Briefly: Serotonin 5-HT6 radioligand binding ([3H]LSD). The following applies: compound at 1 μM; read-out: Inhibition of ligand binding, Serotonin 5-HT6 (percent inhibition of specific binding). The procedure:
Compounds of the invention were incubated with 1.5 nM [3H]Lysergic acid diethylamide (LSD) for 120 min. at 37° C. […] Receptor proteins were filtered and washed, the filters were then counted to determine [3H]LSD specifically bound. Compounds were screened at 1 μM or lower, using 1% DMSO as vehicle. Biochemical assay results are presented as the percent inhibition of specific binding in Table 10.

Experiment [2] deals with T2, human recombinant histamine H2 receptor (Homo sapiens, UniProt P25021).
T2 construct: expressed in transfected cells; host or cells: Chinese hamster ovary (CHO) K1 cells
T2 sequence (P25021 whole entry): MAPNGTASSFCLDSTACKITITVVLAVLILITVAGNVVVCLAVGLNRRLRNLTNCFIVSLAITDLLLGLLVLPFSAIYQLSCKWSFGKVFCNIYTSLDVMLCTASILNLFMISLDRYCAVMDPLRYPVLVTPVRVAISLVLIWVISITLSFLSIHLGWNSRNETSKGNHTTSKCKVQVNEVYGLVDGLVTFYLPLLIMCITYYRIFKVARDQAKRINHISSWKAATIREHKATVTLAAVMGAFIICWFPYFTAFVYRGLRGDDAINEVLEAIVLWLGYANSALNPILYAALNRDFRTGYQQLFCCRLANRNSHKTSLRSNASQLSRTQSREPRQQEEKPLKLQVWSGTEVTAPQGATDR
In words: Histamine H2 radioligand binding ([125I]Aminopotentidine). The settings on record: read-out: Histamine Binding (1 μM) H2, percent inhibition of specific binding, 1 μM. A digest of the protocol: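 Receptor source: human recombinant H2 in CHO-K1 cells, assayed in 50 mM phosphate pH 7.4. Competition against 0.1 nM [125I]aminopotentidine, 120 min, 25 °C; 3 μM tiotidine sets nonspecific binding, filter-bound counts give specific binding.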

Experiment [3] has as its target T3, human recombinant serotonin (5-Hydroxytryptamine) 5-HT2C receptor (Homo sapiens, UniProt P28335).
T3 construct: expressed in transfected cells; host or cells: Chinese hamster ovary (CHO-K1) cells
T3 sequence (P28335 33-458): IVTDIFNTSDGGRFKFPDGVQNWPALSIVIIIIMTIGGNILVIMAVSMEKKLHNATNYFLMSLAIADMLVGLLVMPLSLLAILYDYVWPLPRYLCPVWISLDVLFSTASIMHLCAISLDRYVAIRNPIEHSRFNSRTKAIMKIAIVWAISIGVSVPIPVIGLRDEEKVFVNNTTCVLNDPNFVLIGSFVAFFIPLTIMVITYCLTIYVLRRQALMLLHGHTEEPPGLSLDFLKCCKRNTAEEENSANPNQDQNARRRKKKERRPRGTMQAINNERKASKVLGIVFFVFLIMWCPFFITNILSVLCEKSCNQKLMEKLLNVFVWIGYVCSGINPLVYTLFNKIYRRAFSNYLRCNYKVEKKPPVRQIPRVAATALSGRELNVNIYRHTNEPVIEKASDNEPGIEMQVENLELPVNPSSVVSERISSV
In words: Serotonin 5-HT2C radioligand binding ([3H]Mesulergine). The following applies: compound at 1 μM; read-out: Inhibition of ligand binding, Serotonin 5-HT2C (percent inhibition of specific binding). A digest of the protocol:
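Compounds tested at 1 μM or lower (1% DMSO vehicle) for displacement of 1 nM [3H]Mesulergine over 60 min at 25° C. Specific binding determined by filtration counting, with 1 μM Mianserin defining non-specific binding; values are percent inhibition.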

Experiment [4] addresses T4, human recombinant serotonin (5-Hydroxytryptamine) 5-HT2A receptor (Homo sapiens, UniProt P28223).
T4 construct: expressed in transfected cells; host or cells: Chinese hamster ovary (CHO-K1) cells
Briefly: Serotonin 5-HT2A radioligand binding ([3H]Ketanserin). The following applies: read-out: Inhibition of ligand binding, Serotonin 5-HT2A (percent inhibition of specific binding), compound at 1 μM. The procedure: Compounds of the invention were incubated with 0.5 nM [^3H]Ketanserin for 60 min. at 25° C. Non-specific binding was estimated in the presence of 1 μM Mianserin. Receptor proteins were filtered and washed, the filters were then counted to determine [^3H]Ketanserin specifically bound.

The target of experiment [5] is human recombinant serotonin (5-Hydroxytryptamine) 5-HT7 receptor (Homo sapiens, UniProt P34969). In words: Serotonin 5-HT7 radioligand binding ([3H]LSD). The following applies: compound at 1 μM; read-out: Inhibition of ligand binding, Serotonin 5-HT7 (percent inhibition of specific binding). An excerpt: Receptor proteins were filtered and washed, the filters were then counted to determine [^3H]LSD specifically bound.
Chain of human recombinant serotonin (5-Hydroxytryptamine) 5-HT7 receptor (P34969 whole entry): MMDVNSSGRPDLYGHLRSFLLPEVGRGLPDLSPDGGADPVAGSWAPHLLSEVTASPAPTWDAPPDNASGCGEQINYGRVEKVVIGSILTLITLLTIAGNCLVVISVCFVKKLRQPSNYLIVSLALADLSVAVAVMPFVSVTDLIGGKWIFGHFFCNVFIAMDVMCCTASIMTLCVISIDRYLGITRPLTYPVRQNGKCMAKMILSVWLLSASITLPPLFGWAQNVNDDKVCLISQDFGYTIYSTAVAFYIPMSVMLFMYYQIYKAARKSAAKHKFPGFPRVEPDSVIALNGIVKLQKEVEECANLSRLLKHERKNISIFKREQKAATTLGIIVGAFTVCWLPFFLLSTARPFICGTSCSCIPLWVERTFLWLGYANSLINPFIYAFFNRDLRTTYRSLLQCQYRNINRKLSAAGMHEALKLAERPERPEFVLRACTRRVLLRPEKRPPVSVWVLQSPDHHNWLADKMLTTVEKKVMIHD

The target of experiment [6] is histamine receptor H1 (Homo sapiens, UniProt P35367). In words: Histamine H1 radioligand binding ([3H]Pyrilamine). The following applies: read-out: Histamine Binding (1 μM) H1, percent inhibition of specific binding, 1 μM. In outline: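 Values are percent inhibition of specific [3H]pyrilamine (1.2 nM) binding with compounds at ≤1 μM (1% DMSO vehicle); 180 min incubation at 25 °C, pH 7.4 Tris buffer, on CHO-expressed human H1 receptor; 1 μM pyrilamine defined nonspecific binding, bound ligand counted after filtration.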
Chain of histamine receptor H1 (P35367 whole entry): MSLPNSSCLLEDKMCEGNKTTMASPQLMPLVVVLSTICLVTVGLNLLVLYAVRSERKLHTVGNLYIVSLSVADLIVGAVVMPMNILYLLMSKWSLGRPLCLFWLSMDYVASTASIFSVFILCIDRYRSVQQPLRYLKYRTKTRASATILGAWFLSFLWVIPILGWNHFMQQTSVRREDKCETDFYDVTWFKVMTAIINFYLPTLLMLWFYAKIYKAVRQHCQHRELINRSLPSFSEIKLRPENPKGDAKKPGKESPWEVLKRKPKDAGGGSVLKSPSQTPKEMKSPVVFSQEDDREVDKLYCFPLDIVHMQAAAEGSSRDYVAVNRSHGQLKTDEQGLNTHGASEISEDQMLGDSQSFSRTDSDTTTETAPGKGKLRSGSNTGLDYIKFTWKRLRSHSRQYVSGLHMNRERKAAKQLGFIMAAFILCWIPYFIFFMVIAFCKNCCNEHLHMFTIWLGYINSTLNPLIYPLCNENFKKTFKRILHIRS

Experiment [7] addresses human dopamine D2L receptor (Homo sapiens, UniProt P14416). Briefly: Dopamine D2L radioligand binding ([3H]Spiperone). The following applies: percent inhibition of specific binding; compound at 1 μM; read-out: Inhibition of ligand binding, Dopamine D2L. The source says: Non-specific binding was estimated in the presence of […] Haloperidol. Receptor proteins were filtered and washed, the filters were then counted to determine [^3H]Spiperone specifically bound. […] Biochemical assay results are presented as the percent inhibition of specific binding in Table 9.

The structures appear in SMILES notation.

Chain of human dopamine D2L receptor (P14416 whole entry): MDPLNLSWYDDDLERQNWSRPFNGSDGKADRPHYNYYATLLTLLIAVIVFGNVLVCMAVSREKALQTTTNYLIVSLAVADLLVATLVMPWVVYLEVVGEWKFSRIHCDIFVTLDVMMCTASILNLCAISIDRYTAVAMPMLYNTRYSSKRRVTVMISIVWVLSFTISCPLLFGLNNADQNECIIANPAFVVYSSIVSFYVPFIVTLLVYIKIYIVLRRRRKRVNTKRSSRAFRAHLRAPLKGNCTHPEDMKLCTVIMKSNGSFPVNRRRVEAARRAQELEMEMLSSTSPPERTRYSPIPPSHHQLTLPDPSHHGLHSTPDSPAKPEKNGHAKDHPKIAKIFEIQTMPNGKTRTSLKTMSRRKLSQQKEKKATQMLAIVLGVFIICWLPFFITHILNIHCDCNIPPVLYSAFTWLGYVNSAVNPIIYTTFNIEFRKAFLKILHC
T1 sequence (P50406 whole entry): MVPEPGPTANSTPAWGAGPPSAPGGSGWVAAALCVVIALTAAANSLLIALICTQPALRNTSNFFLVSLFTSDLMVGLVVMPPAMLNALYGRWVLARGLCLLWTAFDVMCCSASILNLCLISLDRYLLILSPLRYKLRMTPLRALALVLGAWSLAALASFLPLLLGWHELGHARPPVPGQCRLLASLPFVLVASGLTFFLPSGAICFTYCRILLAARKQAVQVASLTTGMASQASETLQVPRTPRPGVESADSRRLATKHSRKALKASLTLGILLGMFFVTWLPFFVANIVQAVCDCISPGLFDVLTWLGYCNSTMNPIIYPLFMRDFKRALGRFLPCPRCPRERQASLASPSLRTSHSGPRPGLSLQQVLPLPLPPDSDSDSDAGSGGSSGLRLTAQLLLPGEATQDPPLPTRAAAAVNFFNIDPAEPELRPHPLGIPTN
T4 sequence (P28223 whole entry): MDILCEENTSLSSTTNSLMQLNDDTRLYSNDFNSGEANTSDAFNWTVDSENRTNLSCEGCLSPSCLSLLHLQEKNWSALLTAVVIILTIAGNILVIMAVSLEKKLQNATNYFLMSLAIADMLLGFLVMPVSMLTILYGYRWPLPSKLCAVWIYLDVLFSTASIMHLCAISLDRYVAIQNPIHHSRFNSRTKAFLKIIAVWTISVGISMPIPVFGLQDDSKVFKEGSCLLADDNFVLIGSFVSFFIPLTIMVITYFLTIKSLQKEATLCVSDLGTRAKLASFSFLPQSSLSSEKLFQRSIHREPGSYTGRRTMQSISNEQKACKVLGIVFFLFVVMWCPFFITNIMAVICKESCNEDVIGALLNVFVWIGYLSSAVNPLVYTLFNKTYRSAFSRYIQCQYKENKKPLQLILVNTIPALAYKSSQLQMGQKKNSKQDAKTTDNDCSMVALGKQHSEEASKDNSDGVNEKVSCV

With `COc1ccc(/C(C)=C/n2c3c(c4cc(C)ccc42)CN(C)CC3)cc1F` [Compound 214, (E)-5-(2-(3-fluoro-4-methoxyphenyl)prop-1-enyl)-2,8-dimethyl-2,3,4,5-tetrahydro-1H-pyrido[4,3-b]indole], the inhibition at 1 µM in experiment [1] came to 94%; in experiment [2], 100%; in experiment [3], 95%; in experiment [4], 93%; in experiment [5], 97%; in experiment [6], 23%. In experiment [7], the inhibition at 1 µM came out at 83%.

With `C/C(=C\n1c2c(c3cc(Cl)c(Cl)cc31)CN(C)CC2)c1ccncc1` [Compound 243, (E)-7,8-dichloro-2-methyl-5-(2-(pyridin-4-yl)prop-1-enyl)-2,3,4,5-tetrahydro-1H-pyrido[4,3-b]indole], the inhibition at 1 µM was determined as 107% in experiment [1]; 90% in experiment [2]; 99% in experiment [3]; 100% in experiment [4]; 97% in experiment [5]; 95% in experiment [6]. Besides, the inhibition at 1 µM in experiment [7] amounted to 96%.

In the case of `C/C(=C/n1c2c(c3cc(Cl)ccc31)CN(C)CC2)c1cccc(F)c1` [Compound 233, (Z)-8-chloro-5-(2-(3-fluorophenyl)prop-1-enyl)-2-methyl-2,3,4,5-tetrahydro-1H-pyrido[4,3-b]indole], the inhibition at 1 µM was found to be 102% in experiment [1]; 99% in experiment [2]; 101% in experiment [3]; 97% in experiment [4]; 95% in experiment [5]; 85% in experiment [6]. In addition, the inhibition at 1 µM in experiment [7] amounted to 48%.

`C/C(=C/n1c2c(c3cc(Cl)ccc31)CN(C)CC2)c1ccccc1Cl` [Compound 237, (Z)-8-chloro-5-(2-(2-chlorophenyl)prop-1-enyl)-2-methyl-2,3,4,5-tetrahydro-1H-pyrido[4,3-b]indole]: the inhibition at 1 µM in experiment [1] was determined as 101%; in experiment [2] it was 95%; in experiment [3], 98%; in experiment [4], 101%; in experiment [5], 100%; in experiment [6], 88%. Also, the inhibition at 1 µM in experiment [7] worked out at 45%.

`C/C(=C\n1c2c(c3cc(Cl)ccc31)CN(C)CC2)c1ccc(Cl)c(Cl)c1` [Compound 103, (E)-8-chloro-5-(2-(3,4-dichlorophenyl)prop-1-enyl)-2,3,4,5-tetrahydro-2-methyl-1H-pyrido[4,3-b]indole]: the inhibition at 1 µM in experiment [1] came out at 89%; in experiment [2], 101%; in experiment [3], 98%; in experiment [4] it was 101%; in experiment [5], 90%; in experiment [6], 81%. Besides, the inhibition at 1 µM in experiment [7] is 49%.

For `Cc1ccc2c(c1)c1c(n2CC(C)(O)c2ccc(O)cc2)CCN(C)C1` (stereo not shown) [Compound 187, 4-(1-(2,8-dimethyl-3,4-dihydro-1H-pyrido[4,3-b]indol-5(2H)-yl)-2-hydroxypropan-2-yl)phenol], the inhibition at 1 µM in experiment [1] turned out to be 98%; in experiment [2], 57%; in experiment [3] it was 99%; in experiment [4], 102%; in experiment [5], 94%; in experiment [6] it was 36%. The inhibition at 1 µM in experiment [7] worked out at 35%.

Turning to `C/C(=C\n1c2c(c3cc(Cl)ccc31)CN(C)CC2)c1ccccc1Cl` [Compound 238, (E)-8-chloro-5-(2-(2-chlorophenyl)prop-1-enyl)-2-methyl-2,3,4,5-tetrahydro-1H-pyrido[4,3-b]indole], the inhibition at 1 µM in experiment [1] came out at 99%; in experiment [2] it was 93%; in experiment [3] it was 99%; in experiment [4], 101%; in experiment [5] it was 98%; in experiment [6], 58%. Further, in experiment [7], the inhibition at 1 µM is 81%.
